Data as given in patent US10905691B2, “Use of triazolo(4,5-d)pyrimidine derivatives for prevention and treatment of bacterial infection” (Universite de Liege, priority 2016, dated 2021).

Columns and labels:
[1] = tested on: S. aureus (ATCC 25904); experiment: Growth kinetics in logarithmic phase (OD600 and viable count); type: cell-based, Staphylococcus aureus; details: 20-100 min, FIG. 1
Protocol: S. aureus (American Type Culture Collection, ATCC 25904) was grown overnight in Tryptic Soy Broth (TSB) medium, diluted 1:100 in fresh TSB, and incubated aerobically at 37° C. until bacteria growth reached a logarithmic phase (OD600=0.25-0.3).
Increasing concentrations of Triafluocyl (Cayman Chemical, Item No. 15425) or vehicle (DMSO) was then added in 5 ml of bacteria suspensions. Bacterial growth was measured after different time intervals (20-100 min) by spectrophotometry (OD600) and by counting the colony-forming units after plating appropriate culture dilutions on TS agar plates.
In FIG. 1 kinetics of S. aureus growth in the presence of an increasing concentrations (1 μg/ml to 20 μg/ml) of Triafluocyl were measured by turbidity measurement (upper graph), and viable count (lower graph). Data represent medians±range (n=3). *p<0.05; **p<0.01, ***p<0.001, Triafluocyl vs vehicle.

[2] = tested on: Pseudomonas aeruginosa (ATCC 27853); experiment: MIC determination with or without C12(ω7)Kβ12 (OAK); type: cell-based; details: for MIC: Pseudomonas aeruginosa, ATCC27853, in presence of 10 μg/ml OAK (C12(ω7)Kβ12)
Protocol: Determination of Minimal Inhibitory Concentration (MIC) of Triafluocyl (Cayman Chemical, Item No. 15425) in presence of C12(ω7)Kβ12 (provided by Custom synthesis Biomers Germany) against Pseudomonas aeruginosa (ATCC 27853).
A single colony of Pseudomonas aeruginosa grown on a Tryptic Soy agar (TSA) plate is resuspended and cultured in Tryptic Soy Broth (TSB) medium overnight (O/N) in aerobic conditions (37° C. with 190 rpm shaking in New Brunswick Innova 4200 Incubator Shaker). Next day the resulting inoculum is diluted again at 1:100 in Mueller-Hinton broth (MHB) and then incubated in aerobic conditions for 1 h30 (OD=0.08-0.1) to reach an exponential phase in the grown curve. A resulting inoculum corresponding to around 5×10^5 colony forming unit (CFU)/ml, is further incubated in presence or absence of different concentrations (10 and 20 μg/ml) of Triafluocyl in 2% DMSO with or without C12(ω7)Kβ12 for 18 hr in aerobic conditions (37° C. with 190 rpm shaking in New Brunswick Innova 4200 Incubator Shaker). Growth of Pseudomonas aeruginosa in each condition depicted in FIG. 15A is evaluated by reading the OD of each culture at 600 nm (OD600) in a spectrophotometer (Fisher Scientific, cell density meter model 40).
Determination of Minimal Inhibitory Concentration (MIC) of Fluometacyl (prepared according to WO99/0514) in presence of C12(ω7)Kβ12 (provided by Biomers.net Germany) against Pseudomonas aeruginosa (ATCC 27853). The C12(ω7)Kβ12 was synthesized by solid-phase method as described by I. Radzishevsky in Antimicrobial Agents and Chemotherapy, May 2007 (1753-1759) (https://aac.asm.org/content/51/5/1753)
A single colony of Pseudomonas aeruginosa grown on a Tryptic Soy agar (TSA) plate is resuspended and cultured in Tryptic Soy Broth (TSB) medium overnight (O/N) in aerobic conditions (37° C. with 220 rpm shaking in New Brunswick Innova 4200 Incubator Shaker). Next day the resulting inoculum is diluted again at 1:100 in Mueller-Hinton broth (MHB) and then incubated in aerobic conditions for 1 h30 (OD=0.08-0.1) to reach an exponential phase in the grown curve. A resulting inoculum corresponding to around 5×10^5 colony forming unit (CFU)/ml, is further incubated in presence or absence of different concentrations (10 and 20 μg/ml) of Fluometacyl in 2% DMSO with or without C12(ω7)Kβ12 for 18 hr in aerobic conditions (37° C. with 190 rpm shaking in New Brunswick Innova 4200 Incubator Shaker). Growth of Pseudomonas aeruginosa in each condition depicted in FIG. 16A is evaluated by reading the Optical Density of each culture at 600 nm (OD600) in a spectrophotometer (Fisher Scientific, cell density meter model 40).

[3] = tested on: S. aureus (ATCC 25904) biofilm; experiment: Biofilm formation on polystyrene (crystal violet); type: cell-based, Staphylococcus aureus; details: 20 hours
Protocol: (§1) S. aureus (ATCC 25904) was grown overnight in TSB medium, before being diluted 100 fold in fresh TSB, and incubated aerobically at 37° C. until bacteria culture reached an OD600 of 0.6 (corresponding to approximately 1-3×10^8 CFU/ml). Bacteria cultures were then diluted to 1×10^4 CFU/ml in fresh TSB. 800 μl aliquots of diluted bacteria suspensions were distributed in each well of a 24-well plate. Bacteria were allowed to adhere for 4 hours under static conditions at 37° C. After removing media, wells were rinsed 2 times with PBS to eliminate planktonic bacteria and re-filled with TSB supplemented with 0.5% glucose
Triafluocyl or DMSO as vehicle was then added at desired concentration and plates were incubated at 37° C. for 20 hours. After incubation, wells were washed and stained with 0.5% (w/v) crystal violet for 30 minutes, washed again and the dye was solubilized by adding 20% acetic acid (v/v in water) before reading absorbance at 595 nm.
S. aureus biofilms were formed on polystyrene surface in the presence of increasing concentrations of Triafluocyl or DMSO as vehicle. In FIG. 2, Biofilm mass is presented as percentage of values obtained in the presence of DMSO (*P<0.05; **P<0.01; ***P<0.001, Triafluocyl versus DMSO, n=4).
as §1, with “Staphyloccocus” for “S.”, “or Staphyloccocus epidermidis (ATCC 35984) were” for “was”, “TSB. Aliquots of” for “TSB.”, “μl” for “μl aliquots of”, “removing the” for “removing”, “glucose containing Fluometacyl at desired concentration or DMSO alone (Ctrl). […] The dye was solubilized by adding 20% acetic acid (v/v in water) before reading absorbance at 595 nm. […]” for “glucose”

Structure (SMILES) | effect on bacterial growth (turbidity and viable count) ([1]; 10 μg/ml) | effect on bacterial growth (turbidity and viable count) ([1]; 20 μg/ml) | MIC [2] | inhibition of P. aeruginosa growth ([2]; taken alone at a concentration of 10 μg/ml) | S. aureus biofilm formation ([3]; 10 μg/ml, polystyrene surface) | S. aureus biofilm formation ([3]; all concentrations tested, versus DMSO) | inhibition of P. aeruginosa growth ([2]; taken alone at a concentration of 20 μg/ml) | S. aureus biofilm formation ([3]; 38 μM, FIG. 10A)
CCCSc1nc(N[C@@H]2C[C@H]2c2ccc(F)c(F)c2)c2nnn([C@@H]3C[C@H](OCCO)[C@@H](O)[C@H]3O)c2n1 [Triafluocyl, (1S,2S,3R,5S)-3-[7-[(1R,2S)-2-(3,4-difluorophenyl)cyclopropylamino]-5-(propylthio)-3H-[1,2,3]-triazolo[4,5-d]pyrimidin-3-yl]-5-(2-hydroxyethoxy)-1,2-cyclopentanediol] | able to inhibit bacterial growth | potent bactericidal effect | 10 µg/mL | unable to inhibit P. aeruginosa growth | no biofilm could form | significantly reduces | – | –
CCCSc1nc(N[C@@H]2C[C@H]2c2ccc(F)c(F)c2)c2nnn([C@@H]3C[C@H](O)[C@@H](O)[C@H]3O)c2n1 [Fluometacyl, (1S,2R,3S,4R)-4-[7-[[(1R,2S)-2-(3,4-Difluorophenyl)cyclopropyl]amino]-5-(propylthio)-3H-1,2,3-triazolo[4,5-d]pyrimidin-3-yl]-1,2,3-cyclopentanetriol] | – | – | 20 µg/mL | – | – | – | unable to inhibit P. aeruginosa growth | could not form any biofilm
